Legend:
Format in all cases: biochemical
chymotrypsin = molecular target: T1, chymotrypsin (Bos taurus, UniProt P00766); assay: Chymotrypsin reaction, test for non-specific activity (410 nm); settings: alternative enzyme chymotrypsin; 30 nM enzyme, 200 μM N-succinyl-Ala-Ala-Pro-Phe p-nitroanilide, 25°C
T1 construct: purchased Sigma-Aldrich
Method: (§1) Chymotrypsin reactions were followed at 410 nm using 30 nM enzyme and 200 μM N-succinyl-Ala-Ala-Pro-Phe p-nitroanilide at 25°C. β-galactosidase reactions were followed at 420 nm using 4 nM enzyme and 1 mM 2-nitrophenyl β-D-galactopyranoside at 37°C. […] Enzymes and substrates were purchased from Sigma-Aldrich.

[1] = molecular target: TEM β-lactamase (TEM, M182T variant) (Escherichia coli, UniProt P62593, M180T); assay: TEM β-lactamase nitrocefin hydrolysis activity assay (UV-vis, 482 nm); settings: for % change in rate: 50 µM nitrocefin; for kcat: TEM + 100 µM compound, nitrocefin
TEM T265V = TEM T265V (Escherichia coli, UniProt P62593, M180T/T261V)
β-galactosidase = β-galactosidase reaction, test for non-specific activity (420 nm); settings: alternative enzyme β-galactosidase; 4 nM enzyme, 1 mM 2-nitrophenyl β-D-galactopyranoside, 37°C
Method: as §1

TEM L220N = TEM L220N (Escherichia coli, UniProt P62593, L218N/M180T)
[2] = detergent-dependence: 0% Triton-X
[3] = detergent-dependence: 0.01% Triton-X

Row | Structure (SMILES) | % change in rate (chymotrypsin) | % change in rate ([1]; 10x enzyme test: 1 nM TEM) | % change in rate ([1]; 10x enzyme test: 10 nM TEM) | kcat [1] | % change in rate [1, 2] | % change in rate [1, 3] | kcat (TEM T265V) | % change in rate (β-galactosidase) | kcat (TEM L220N) | % modulation of kcat / Km ([1]; TEM, 100 µM compound vs no compound) | decrease of kcat/Km ([1]; TEM, as worded in the text (decreasing kcat/Km by))
1 | c1nc(NCCCN2CCOCC2)c2c3c(sc2n1)CCCC3 [compound 2] | -1% | +38% | +33% | 334 ± 5 s⁻¹ | +30% | +33% | 307 ± 17 s⁻¹ | +5% |  |  | 
2 | Oc1ccc(CC[C@H]2CC[C@H](c3ccc(O)cc3)CO2)cc1 (relative stereo) [compound 1] | -5% | +65% |  | 527 ± 8 s⁻¹ |  | +66% |  | +2% | 5.2 ± 0.3 s⁻¹ |  | 
3 | COc1cccc(C(=O)C[C@@H](c2ccccc2)C(C)(C)[N+](=O)[O-])c1 (racemic) [compound 3] | -2% | -47% | -48% | 256 ± 28 s⁻¹ | -40% | -45% |  | +3% |  | -59% | 59%

— publication PMC5453556, “Designing small molecules to target cryptic pockets yields both positive and negative allosteric modulators” (PLoS ONE, 2017)
